The test system of one assay is LS8817^TetONFMDM2 cells. Put plainly: SA-β-gal positive cells in LS8817 TetON FLAG-MDM2 cells. It is filed as cell-based. How it is done: The ability of tipifarnib to induce senescence was confirmed in the LS8817^TetONFMDM2 cells used in Example 2. LS8817^TetONFMDM2 cells were treated with either doxycycline alone for 8 days (DOX, black), doxycycline for three days followed by […] of 10 μg/ml doxycycline and 0.2 μM palbociclib (PD+DOX, Brown), or doxycycline for two days followed by three days of doxycycline and palbociclib followed by five days of doxycycline+palbociclib+0.1 μM tipifarnib (PD+DOX->tipi, green). ATRX foci and nuclear size were evaluated as describe previously. […] ATRX foci are shown in green, and DAPI staining in blue. […] The cells treated with 3 days of doxycycline and palbociclib followed by 5 days of tipifarnib had SA-β-gal in about 60% of cells compared to the cells treated with doxycycline and palbociclib for 8 days which had SA-β-gal in less than 10% of cells. Treatment with tipifarnib caused a greater than 6-fold increase in the number of senescent cells.

The subject of the next assay is HGPS fibroblasts. Description: Senescent cells (ATRX foci vs nuclear area) in progeria patient fibroblasts. It is filed as cell-based, human. The method, then:
Normal diploid fibroblasts (NDF) and fibroblasts from a patient with premature aging syndrome (HGPS) were used to model human skin and to determine the effect of calcitriol on senescence in these cells. Calcitrol, a synthetic version of Vitamin D3, can reverse some symptoms of progeria. To assess the effect of calcitrol on senescence NDF and HGPS fibroblasts were cultured and treated with 0.5 μM calcitriol for up to 10 days. Cells were then stained for SA-β-gal. FIG. 11A and FIG. 11B show representative images of SA-β-gal negative and positive cells respectively. […] This experiment was repeated at least three times using different passages, a representative similarly passaged experiment is shown. […] The horizontal line demarcates the 90th percentile in ATRX foci number, a stringent definition of the senescent state. The vertical line demarcates the 70th percentile of nuclear area. Cells in the upper right quadrant are senescent (ATRX^highNV^large). […]
The natural extracts were also tested on fibroblast cells as described in Example 4. NDF and HGPS fibroblasts were treated with the natural product extracts for 7 days and then assessed for ATRX foci number, cell size and cell number, as indicated in the experimental design in FIG. 19. […] The data shown is representative of at least two different experiments for each mixture analyzed at multiple doses and multiple times.

The values below come from patent publication US20230226089A1, “METHODS AND COMPOSITIONS FOR TREATING DISEASES ASSOCIATED WITH SENESCENCE” (Atropos Therapeutics, Inc., priority 2019, published 2023).

On to `Cn1cncc1[C@@](N)(c1ccc(Cl)cc1)c1ccc2c(c1)c(-c1cccc(Cl)c1)cc(=O)n2C` [tipifarnib], for which the “cells positive for SA-β-gal” value with LS8817^TetONFMDM2 cells (3 days doxycycline and palbociclib followed by 5 days tipifarnib) is recorded as “about 60%”. Moreover, the “increase in the number of senescent cells” value with LS8817^TetONFMDM2 cells (tipifarnib added vs doxycycline and palbociclib 8 days) was “greater than 6 fold”.
In the case of `CC(=O)c1c(C)c2cnc(Nc3ccc(N4CCNCC4)cn3)nc2n(C2CCCC2)c1=O` [palbociclib], in the assay on LS8817^TetONFMDM2 cells (doxycycline and palbociclib for 8 days), the “cells positive for SA-β-gal” value is given as “less than 10%”. In the assay with LS8817^TetONFMDM2 cells (palbociclib alone (without doxycycline)), the “cells SA-β-gal positive” value was “about 80%”.
With `C=C1/C(=C\C=C2/CCC[C@]3(C)[C@@H]([C@H](C)CCCC(C)(C)O)CC[C@@H]23)C[C@@H](O)C[C@@H]1O` [calcitriol], the “accumulation of senescent cells (ATRX foci number, nuclear size distribution)” value in the assay with HGPS fibroblasts (0.5 μM calcitriol up to 10 days) is given as “decreased the accumulation of senescent cells”. Also, the “percentage of senescent cells (ATRX high, large nuclear area quadrant)” value in the assay on HGPS fibroblasts (HGPS cells, treated 7 days, about 10% without treatment) is recorded as “about 0%”.
